Test results published in US20050080054A1, “Treating androgen decline in aging male (ADAM)-associated conditions with SARMS” (priority 2002, published 2005).
Values joined by “and” are separate entries in the source; they are usually repeats but may differ in a detail not shown here. Identical values can stand only once. “Also recorded” adds a separate entry of the source.

Test system: androgen-responsive tissues (prostate, seminal vesicles, levator ani muscle)
Experiment: Androgenic and anabolic activity: weight of androgen-responsive tissues in intact, hemi-orchidectomized and castrated rats
Format: in vivo, rat
Details: for Levator Ani weight / Prostate weight / Seminal Vesicle weight: n = 5
Method: FIG. 3: Androgenic and Anabolic activity of Compound VI and Compound VII in rats. Male rats with normal testicular function (no surgical manipulation) were left untreated (Intact), treated with compound VI (0.5 mg/day), compound VII (0.5 mg/day) or testosterone proprionate (TP, 0.5 mg/day), and the weight of androgen-responsive tissues (prostate—FIG. 3A, semimal vesicles—FIG. 3B, and levator ani muscle—FIG. 3C) was determined.
(§1) FIG. 4: Androgenic and Anabolic activity of Compound VI and Compound VII in rats. Male rats received unilateral orchidectomy (Hemi-orchidectomized) and were left untreated (Intact), treated with vehicle alone (PEG 300), Compound VI (0.5 mg/day), Compound VII (0.5 mg/day), or testosterone proprionate (TP, 0.5 mg/day), and the weight of androgen-responsive tissues (prostate—FIG. 4A, semimal vesicles—FIG. 4B, and levator ani muscle—FIG. 4C) was determined.
as §1, with “5:” for “4:”, “bilateral” for “unilateral”, “(Castrated)” for “(Hemi-orchidectomized)”, “5A,” for “4A,”, “5B,” for “4B,”, “5C)” for “4C)”
Compound VI and Compound VII were synthesized and characterized in the laboratory of Dr. Duane Miller at the University of Tennessee, Memphis, Tenn. Male Sprague-Dawley rats were purchased from Harlan Biosciences (Indianapolis, Ind.). The animals were maintained on a 12-h cycle of light and dark with food and water available ad libitum. All animal studies were reviewed and approved by the Animal Care and Use Committee of The Ohio State University, and conformed to the Principles of Laboratory Animal Care (NIH publication #85-23, revised 1985). Immature male Sprague-Dawley rats weighing 187 to 214 g were randomly distributed into 9 groups of 5 animals. One day before the initiation of drug treatment, groups 4 through 6 and groups 7 through 9 received unilateral or bilateral orchidectomy, respectively, via a midline scrotal incision. […] All drugs given to animals were freshly prepared as solutions in polyethylene glycol 300 (PEG 300). Groups 4 and 7 received treatment with vehicle alone (i.e., PEG 300). Animals in groups 3, 6, and 9 received testosterone propionate (TP, 0.5 mg/day) via implantation of subdermal osmotic pumps (Model 2002, Durect Corporation, Palo Alto, Calif.). Animals in groups 2, 5, and 8 received Compound VI or Compound VII (0.5 mg/day) via implantation of subdermal osmotic pumps. After 14 days of drug treatment, rats were weighed, anesthetized, and sacrificed. Blood samples were collected by venipuncture of the abdominal aorta. Plasma samples were analyzed for testosterone, FSH, LH and osteocalcin. Testosterone concentrations were measured by AniLytics Inc. (Gaithersburg, Md.). FSH and LH levels were measured by the National Hormone and Peptide Program (Dr. A F Parlow, UCLA, CA). Plasma osteocalcin levels were determined using a commercially available rat osteocalcin EIA kit from Biomedical Technologies Inc. (Stoughton, Mass.). The ventral prostates, seminal vesicles, and levator ani muscle were removed and weighed. Osmotic pumps were also removed from animals to check for correct pump operation. The weights of all organs were normalized to body weight, and analyzed for any statistically significant differences between groups using single-factor ANOVA with the alpha value set a priori at p<0.05. The weights of prostates and seminal vesicles were used as indices for evaluation of androgenic activity, and the levator ani muscle weight was used to evaluate the anabolic activity. Statistical analyses of parameters from complete blood count or serum chemical profiling, wherever applicable, were performed by single-factor ANOVA with the alpha value set a priori at p<0.05.

[1] = castrated rats, 0.5 mg/day, 14 days
[2] = hemi-orchidectomized animals, 0.5 mg/day
[3] = hemi-orchidectomized rats, 0.5 mg/day, 14 days
[4] = intact rats, 0.5 mg/day, 14 days

## CC(=O)Nc1ccc(OC[C@](C)(O)C(=O)Nc2ccc([N+](=O)[O-])c(C(F)(F)F)c2)cc1 [Compound VI]
Castrated animals
  increasing the weight of the prostate, compared with TP: less effective than TP
[1]
  Levator Ani weight: 100.65 % of intact control
  Prostate weight: 32.55 % of intact control
  Seminal Vesicle weight: 16.47 % of intact control
From organ weights in rats
  agonist character in levator ani muscle: full agonist
  agonist character in prostate and seminal vesicles: partial agonist
hemi-orchidectomized and castrated animals
  effect on weight of the levator ani muscle: significant increases
[2]
  size of the levator ani muscle, of that observed in untreated hemi-orchidectomized animals: 108%
  size of the prostate, of that observed in untreated hemi-orchidectomized animals: 75%
  size of the seminal vesicles, of that observed in untreated hemi-orchidectomized animals: 79%
[3]
  Levator Ani weight: 108.10 % of intact control
  Prostate weight: 74.69 % of intact control
  Seminal Vesicle weight: 78.55 % of intact control
Intact and hemi-orchidectomized animals
  effect on prostate weights: significant decreases in prostate weights
Intact animals, 0.5 mg/day
  change in size of levator ani muscle: no statistically significant changes
  change in size/weight of the seminal vesicles: no statistically significant changes; also recorded: no effect
[4]
  Levator Ani weight: 109.15 % of intact control
  Prostate weight: 79 % of intact control and 79.41 % of intact control
  Seminal Vesicle weight: 90.54 % of intact control
Male rats, 0.5 mg/day, 14 days
  adverse pharmacologic effects: No adverse pharmacologic effects were observed
